Test results as given in patent US10760110B2, “Antibiotic testing and screening system” (priority 2017, dated 2020).
Values after ≈ are worked out from the molar mass of the structure shown. Where two headings read alike, the source gives them in different places.

What was measured:
Settings in all cases: Klebsiella pneumoniae
[1] = system: K. pneumoniae NVT1001 and its ΔompK35/36 and/or ΔramR mutants; experiment: Etest MIC, OmpK35/36 loss and AcrAB-TolC overexpression (ΔramR) strains (Table 6); format: cell-based, Klebsiella pneumoniae
Summary of the method: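 Ceftazidime and cefotaxime were tested by CLSI broth microdilution on the blaOXA-48 pACYC177 transformant of NVT1001, using CLSI 2017 breakpoints. Parent, porin-deleted (ΔompK35/36) and ΔramR strains were tested by Etest, with values between two-fold dilutions rounded up.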

[2] = system: K. pneumoniae NVT1001 ΔramRΔompK35/36 mutant and its revertants; experiment: Etest MIC, ΔramRΔompK35/36 mutant and its revertants (Table 7); format: cell-based
[3] = system: K. pneumoniae NVT1001 strains with carbapenemase plasmids; experiment: Etest MIC of β-lactams, OmpK35/36 loss, ΔramR and/or carbapenemase (Table 9); format: cell-based, Klebsiella pneumoniae
Summary of the method: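 Cloned resistance genes in pACYC177 or pACYC184 were electroporated into K. pneumoniae NVT1001. MICs were determined by Etest and rounded up to the next two-fold value. Ceftazidime and cefotaxime against the blaOXA-48 construct were also tested by CLSI broth microdilution, with breakpoints from CLSI 2017 (cephalothin CLSI 2015, moxifloxacin EUCAST 2017).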

C[C@@H](O)[C@H]1C(=O)N2C(C(=O)O)=C(S[C@@H]3CN[C@H](CNS(N)(=O)=O)C3)[C@H](C)[C@H]12 [Doripenem]
MIC ([1]; WT, NVT1001, read-out: MIC): 0.06 µg/mL (≈ 0.143 µM)
MIC ([1]; Δ35, ΔompK35 mutant): 0.06 µg/mL (≈ 0.143 µM)
MIC ([1]; Δ35/36, ΔompK35/36 mutant): 0.125 µg/mL (≈ 0.297 µM)
MIC ([1]; Δ36, ΔompK36 mutant): 0.06 µg/mL (≈ 0.143 µM)
MIC ([1]; ΔramR mutant): 0.03 µg/mL (≈ 0.0713 µM)
MIC ([1]; ΔramRΔ35, ΔramRΔompK35 mutant): 0.03 µg/mL (≈ 0.0713 µM)
MIC ([1]; ΔramRΔ35/36, ΔramRΔompK35/36 mutant): 0.5 µg/mL (≈ 1.19 µM)
MIC ([1]; ΔramRΔ36, ΔramRΔompK36 mutant): 0.25 µg/mL (≈ 0.595 µM)
MIC ([2]; ΔramRΔompK35/36::ompK35/36 revertant): 0.06 µg/mL
MIC ([2]; ΔramRΔompK35/36::ompK35 revertant): 0.25 µg/mL
MIC ([2]; ΔramRΔompK35/36::ompK36 revertant): 0.06 µg/mL
MIC ([2]; ΔramRΔompK35/36::ramR revertant): 0.25 µg/mL
MIC ([2]; ΔramRΔompK35/36::ramR::ompK35/36 revertant): 0.06 µg/mL
MIC ([2]; ΔramRΔompK35/36::ramR::ompK35 revertant): 0.125 µg/mL
MIC ([2]; ΔramRΔompK35/36::ramR::ompK36 revertant): 0.125 µg/mL
MIC ([2]; ΔramRΔompK35/36 mutant): 0.5 µg/mL
MIC ([3]; IMP-8 on pACYC177, WT (NVT1001), read-out: MIC): 1 µg/mL
MIC ([3]; IMP-8 on pACYC177, Δ35 (ΔompK35 mutant)): 2 µg/mL
MIC ([3]; IMP-8 on pACYC177, Δ35/36 (ΔompK35/36 mutant)): > 32 µg/mL
MIC ([3]; IMP-8 on pACYC177, Δ36 (ΔompK36 mutant)): 2 µg/mL
MIC ([3]; IMP-8 on pACYC177, ΔramR mutant): 1 µg/mL
MIC ([3]; IMP-8 on pACYC177, ΔramRΔ35 (ΔramRΔompK35 mutant)): 2 µg/mL
MIC ([3]; IMP-8 on pACYC177, ΔramRΔ35/36 (ΔramRΔompK35/36 mutant)): 32 µg/mL
MIC ([3]; IMP-8 on pACYC177, ΔramRΔ36 (ΔramRΔompK36 mutant)): 32 µg/mL
MIC ([3]; KPC-2 on pACYC177, WT (NVT1001), read-out: MIC): 16 µg/mL
MIC ([3]; KPC-2 on pACYC177, Δ35 (ΔompK35 mutant)): 32 µg/mL
MIC ([3]; KPC-2 on pACYC177, Δ35/36 (ΔompK35/36 mutant)): > 32 µg/mL
MIC ([3]; KPC-2 on pACYC177, Δ36 (ΔompK36 mutant)): > 32 µg/mL
MIC ([3]; KPC-2 on pACYC177, ΔramR mutant): 16 µg/mL
MIC ([3]; KPC-2 on pACYC177, ΔramRΔ35 (ΔramRΔompK35 mutant)): 32 µg/mL
MIC ([3]; KPC-2 on pACYC177, ΔramRΔ35/36 (ΔramRΔompK35/36 mutant)): > 32 µg/mL
MIC ([3]; KPC-2 on pACYC177, ΔramRΔ36 (ΔramRΔompK36 mutant)): > 32 µg/mL
MIC ([3]; KPC-3 on pACYC177, WT (NVT1001), read-out: MIC): 8 µg/mL
MIC ([3]; KPC-3 on pACYC177, Δ35 (ΔompK35 mutant)): 32 µg/mL
MIC ([3]; KPC-3 on pACYC177, Δ35/36 (ΔompK35/36 mutant)): > 32 µg/mL
MIC ([3]; KPC-3 on pACYC177, Δ36 (ΔompK36 mutant)): > 32 µg/mL
MIC ([3]; KPC-3 on pACYC177, ΔramR mutant): 16 µg/mL
MIC ([3]; KPC-3 on pACYC177, ΔramRΔ35 (ΔramRΔompK35 mutant)): 32 µg/mL
MIC ([3]; KPC-3 on pACYC177, ΔramRΔ35/36 (ΔramRΔompK35/36 mutant)): > 32 µg/mL
MIC ([3]; KPC-3 on pACYC177, ΔramRΔ36 (ΔramRΔompK36 mutant)): > 32 µg/mL
MIC ([3]; NDM-1 on pACYC177, WT (NVT1001), read-out: MIC): 16 µg/mL
MIC ([3]; NDM-1 on pACYC177, Δ35 (ΔompK35 mutant)): 32 µg/mL
MIC ([3]; NDM-1 on pACYC177, Δ35/36 (ΔompK35/36 mutant)): > 32 µg/mL
MIC ([3]; NDM-1 on pACYC177, Δ36 (ΔompK36 mutant)): > 32 µg/mL
MIC ([3]; NDM-1 on pACYC177, ΔramR mutant): 32 µg/mL
MIC ([3]; NDM-1 on pACYC177, ΔramRΔ35 (ΔramRΔompK35 mutant)): 32 µg/mL
MIC ([3]; NDM-1 on pACYC177, ΔramRΔ35/36 (ΔramRΔompK35/36 mutant)): > 32 µg/mL
MIC ([3]; NDM-1 on pACYC177, ΔramRΔ36 (ΔramRΔompK36 mutant)): > 32 µg/mL
MIC ([3]; OXA-48 on pACYC177, WT (NVT1001), read-out: MIC): 2 µg/mL
MIC ([3]; OXA-48 on pACYC177, Δ35 (ΔompK35 mutant)): 2 µg/mL
MIC ([3]; OXA-48 on pACYC177, Δ35/36 (ΔompK35/36 mutant)): > 32 µg/mL
MIC ([3]; OXA-48 on pACYC177, Δ36 (ΔompK36 mutant)): 8 µg/mL
MIC ([3]; OXA-48 on pACYC177, ΔramR mutant): 2 µg/mL
MIC ([3]; OXA-48 on pACYC177, ΔramRΔ35 (ΔramRΔompK35 mutant)): 1 µg/mL
MIC ([3]; OXA-48 on pACYC177, ΔramRΔ35/36 (ΔramRΔompK35/36 mutant)): > 32 µg/mL
MIC ([3]; OXA-48 on pACYC177, ΔramRΔ36 (ΔramRΔompK36 mutant)): > 32 µg/mL
MIC ([3]; VIM-1 on pACYC177, WT (NVT1001), read-out: MIC): 16 µg/mL
MIC ([3]; VIM-1 on pACYC177, Δ35 (ΔompK35 mutant)): 32 µg/mL
MIC ([3]; VIM-1 on pACYC177, Δ35/36 (ΔompK35/36 mutant)): > 32 µg/mL
MIC ([3]; VIM-1 on pACYC177, Δ36 (ΔompK36 mutant)): > 32 µg/mL
MIC ([3]; VIM-1 on pACYC177, ΔramR mutant): 32 µg/mL
MIC ([3]; VIM-1 on pACYC177, ΔramRΔ35 (ΔramRΔompK35 mutant)): 32 µg/mL
MIC ([3]; VIM-1 on pACYC177, ΔramRΔ35/36 (ΔramRΔompK35/36 mutant)): > 32 µg/mL
MIC ([3]; VIM-1 on pACYC177, ΔramRΔ36 (ΔramRΔompK36 mutant)): > 32 µg/mL
MIC ([3]; no supplemental plasmid, WT (NVT1001), read-out: MIC): 0.06 µg/mL
MIC ([3]; no supplemental plasmid, Δ35 (ΔompK35 mutant)): 0.06 µg/mL
MIC ([3]; no supplemental plasmid, Δ35/36 (ΔompK35/36 mutant)): 0.125 µg/mL
MIC ([3]; no supplemental plasmid, Δ36 (ΔompK36 mutant)): 0.06 µg/mL
MIC ([3]; no supplemental plasmid, ΔramR mutant): 0.03 µg/mL
MIC ([3]; no supplemental plasmid, ΔramRΔ35 (ΔramRΔompK35 mutant)): 0.03 µg/mL
MIC ([3]; no supplemental plasmid, ΔramRΔ35/36 (ΔramRΔompK35/36 mutant)): 0.5 µg/mL
MIC ([3]; no supplemental plasmid, ΔramRΔ36 (ΔramRΔompK36 mutant)): 0.25 µg/mL
